Assay results published in patent US20250230193A1, “CYCLIC COMPOUND HAVING SELECTIVE KRAS INHIBITORY EFFECT ON HRAS AND NRAS” (CHUGAI SEIYAKU KABUSHIKI KAISHA, priority 2022, published 2025).

Key:
[1] = target: GDP-bound NRAS wild-type protein (Homo sapiens, UniProt P01111); assay: Binding to NRAS by surface plasmon resonance (SPR), Single Cycle Kinetics; settings: SPR, GDP-bound NRAS wild-type vs GDP-bound KRAS wild-type
[2] = target: GDP-bound HRAS wild-type protein (Homo sapiens, UniProt P01112); assay: Binding to HRAS by surface plasmon resonance (SPR), Single Cycle Kinetics; settings: SPR, GDP-bound HRAS wild-type vs GDP-bound KRAS wild-type
GDP-bound HRAS wild-type protein, sequence (P01112 whole entry): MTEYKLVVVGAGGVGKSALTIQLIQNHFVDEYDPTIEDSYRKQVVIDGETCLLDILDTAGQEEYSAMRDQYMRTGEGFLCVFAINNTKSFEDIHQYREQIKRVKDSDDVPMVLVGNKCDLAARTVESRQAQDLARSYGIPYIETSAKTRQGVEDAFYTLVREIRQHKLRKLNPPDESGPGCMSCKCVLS

GDP-bound NRAS wild-type protein, sequence (P01111 whole entry): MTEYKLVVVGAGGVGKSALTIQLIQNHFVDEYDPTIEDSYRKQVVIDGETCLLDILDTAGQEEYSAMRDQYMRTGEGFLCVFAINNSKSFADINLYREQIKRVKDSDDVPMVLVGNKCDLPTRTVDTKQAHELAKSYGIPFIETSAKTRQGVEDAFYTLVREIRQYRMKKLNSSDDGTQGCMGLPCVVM

CCO[C@@H]1C[C@H]2C(=O)NC3(CCC3)C(=O)N(C)[C@@H](C3CCCC3)C(=O)N(C)[C@H](C(=O)N(C)CC)CC(=O)N(C)[C@H]3CCCCCc4ccc(cc4)C[C@@H](C(=O)N(C)CC(=O)N[C@@H](CCc4ccc(C(F)(F)F)c(OC)c4)C(=O)N2C1)N1CC/C=C\C[C@@H](C1=O)N(C)C(=O)CN(C)C(=O)[C@H]([C@@H](C)CC)NC3=O [PP2118]
NRAS/KRAS (ratio of KD value with respect to NRAS to KD value with respect to KRAS) [1]: A (a compound having 10 or more and less than 20 is denoted as A)
HRAS/KRAS (ratio of KD value with respect to HRAS to KD value with respect to KRAS) [2]: B (a compound having 3 or more and less than 10 is denoted as B)

CCO[C@@H]1C[C@H]2C(=O)NC3(CC(C)(C)C3)C(=O)N(C)[C@@H](C(CC)CC)C(=O)N(C)[C@H](C(=O)N(C)C)CC(=O)N(C)[C@@H](CC3CC3)C(=O)N[C@@H]([C@@H](C)CC)C(=O)N(C)CC(=O)N(C)[C@H]3C/C=C\CCN(C3=O)[C@@H](Cc3ccc(C(F)(F)F)cc3)C(=O)N(C)CC(=O)N[C@@H](CCc3cc(F)c(C(F)(F)F)c(F)c3)C(=O)N2C1 [PP2119]
NRAS/KRAS (ratio of KD value with respect to NRAS to KD value with respect to KRAS) [1]: A (a compound having 10 or more and less than 20 is denoted as A)
HRAS/KRAS (ratio of KD value with respect to HRAS to KD value with respect to KRAS) [2]: B (a compound having 3 or more and less than 10 is denoted as B)

CCO[C@@H]1C[C@H]2C(=O)NC3(CC(C)(C)C3)C(=O)N(C)[C@@H](C(CC)CC)C(=O)N(C)[C@H](C(=O)N(C)C)CC(=O)N(C)[C@@H](CC3CCC3)C(=O)N[C@@H]([C@@H](C)CC)C(=O)N(C)CC(=O)N(C)[C@H]3C/C=C\CCN(C3=O)[C@@H](Cc3ccc(C)cc3)C(=O)N(C)CC(=O)N[C@@H](CCc3ccc(Cl)c(Cl)c3)C(=O)N2C1 [PP2120]
NRAS/KRAS (ratio of KD value with respect to NRAS to KD value with respect to KRAS) [1]: AA (a compound having 20 or more is denoted as AA)
HRAS/KRAS (ratio of KD value with respect to HRAS to KD value with respect to KRAS) [2]: A (a compound having 10 or more and less than 20 is denoted as A)

CCO[C@@H]1C[C@H]2C(=O)NC3(CC(C)(C)C3)C(=O)N(C)[C@@H](C(CC)CC)C(=O)N(C)[C@H](C(=O)N(C)C)CC(=O)N(C)[C@@H](COC)C(=O)N[C@@H]([C@@H](C)CC)C(=O)N(C)CC(=O)N(C)[C@H]3C/C=C\CCN(C3=O)[C@@H](Cc3ccc(C(F)(F)F)cc3)C(=O)N(C)CC(=O)N[C@@H](CCc3cc(F)c(C(F)(F)F)c(F)c3)C(=O)N2C1 [PP2121]
NRAS/KRAS (ratio of KD value with respect to NRAS to KD value with respect to KRAS) [1]: AA (a compound having 20 or more is denoted as AA)
HRAS/KRAS (ratio of KD value with respect to HRAS to KD value with respect to KRAS) [2]: A (a compound having 10 or more and less than 20 is denoted as A)

CCO[C@@H]1C[C@H]2C(=O)NC3(CC(C)(C)C3)C(=O)N(C)[C@@H](C(CC)CC)C(=O)N(C)[C@H](C(=O)N(C)C)CC(=O)N(C)[C@@H](C(C)C)C(=O)N[C@@H]([C@@H](C)CC)C(=O)N(C)CC(=O)N(C)[C@H]3C/C=C\CCN(C3=O)[C@@H](Cc3ccc(C)cc3)C(=O)N(C)CC(=O)N[C@@H](CCc3ccc(Cl)c(Cl)c3)C(=O)N2C1 [PP2122]
NRAS/KRAS (ratio of KD value with respect to NRAS to KD value with respect to KRAS) [1]: AA (a compound having 20 or more is denoted as AA)
HRAS/KRAS (ratio of KD value with respect to HRAS to KD value with respect to KRAS) [2]: A (a compound having 10 or more and less than 20 is denoted as A)

CCO[C@@H]1C[C@H]2C(=O)NC3(CC(C)(C)C3)C(=O)N(C)[C@@H](C(CC)CC)C(=O)N(C)[C@H](C(=O)N3CCCC3)CC(=O)N(C)[C@@H](COC)C(=O)N[C@@H]([C@@H](C)CC)C(=O)N(C)CC(=O)N(C)[C@H]3C/C=C\CCN(C3=O)[C@@H](Cc3ccc(C(F)(F)F)cc3)C(=O)N(C)CC(=O)N[C@@H](CCc3cc(F)c(C(F)(F)F)c(F)c3)C(=O)N2C1 [PP2123]
NRAS/KRAS (ratio of KD value with respect to NRAS to KD value with respect to KRAS) [1]: A (a compound having 10 or more and less than 20 is denoted as A)
HRAS/KRAS (ratio of KD value with respect to HRAS to KD value with respect to KRAS) [2]: A (a compound having 10 or more and less than 20 is denoted as A)

CCO[C@@H]1C[C@H]2C(=O)NC3(CC(C)(C)C3)C(=O)N(C)[C@@H](C(CC)CC)C(=O)N(C)[C@H](C(=O)N(C)C)CC(=O)N(C)[C@@H](CC3CC3)C(=O)N[C@@H]([C@@H](C)CC)C(=O)N(C)CC(=O)N(C)[C@H]3C/C=C\CCN(C3=O)[C@@H](Cc3ccc(C(F)(F)F)cc3)C(=O)N(C)CC(=O)N[C@@H](CCc3ccc(C(F)(F)F)c(Cl)c3)C(=O)N2C1 [PP2124]
NRAS/KRAS (ratio of KD value with respect to NRAS to KD value with respect to KRAS) [1]: AA (a compound having 20 or more is denoted as AA)
HRAS/KRAS (ratio of KD value with respect to HRAS to KD value with respect to KRAS) [2]: A (a compound having 10 or more and less than 20 is denoted as A)

CCC[C@H]1C(=O)N[C@@H]([C@@H](C)CC)C(=O)N(C)CC(=O)N(C)[C@H]2C/C=C\CCN(C2=O)[C@@H](Cc2ccc(C(F)(F)F)cc2)C(=O)N(C)CC(=O)N[C@@H](CCc2cc(F)c(C(F)(F)F)c(F)c2)C(=O)N2C[C@H](OCC)C[C@H]2C(=O)NC2(CC(C)(C)C2)C(=O)N(C)[C@@H](C(CC)CC)C(=O)N(C)[C@H](C(=O)N(C)C)CC(=O)N1C [PP2125]
NRAS/KRAS (ratio of KD value with respect to NRAS to KD value with respect to KRAS) [1]: AA (a compound having 20 or more is denoted as AA)
HRAS/KRAS (ratio of KD value with respect to HRAS to KD value with respect to KRAS) [2]: A (a compound having 10 or more and less than 20 is denoted as A)

CCO[C@@H]1C[C@H]2C(=O)NC3(CC(C)(C)C3)C(=O)N(C)[C@@H](C(CC)CC)C(=O)N(C)[C@H](C(=O)N(C)C)CC(=O)N(C)[C@@H](COC)C(=O)N[C@@H]([C@@H](C)CC)C(=O)N(C)CC(=O)N(C)[C@H]3C/C=C\CCN(C3=O)[C@@H](Cc3ccc(C(F)(F)F)cc3)C(=O)N(C)CC(=O)N[C@@H](CCc3ccc(C(F)(F)F)c(Cl)c3)C(=O)N2C1 [PP2126]
NRAS/KRAS (ratio of KD value with respect to NRAS to KD value with respect to KRAS) [1]: A (a compound having 10 or more and less than 20 is denoted as A)
HRAS/KRAS (ratio of KD value with respect to HRAS to KD value with respect to KRAS) [2]: B (a compound having 3 or more and less than 10 is denoted as B)

CCO[C@@H]1C[C@H]2C(=O)NC3(CC(C)(C)C3)C(=O)N(C)[C@@H](C(CC)CC)C(=O)N(C)[C@H](C(=O)N(C)C)CC(=O)N(C)[C@@H](CC(C)C)C(=O)N[C@@H]([C@@H](C)CC)C(=O)N(C)CC(=O)N(C)[C@H]3C/C=C\CCN(C3=O)[C@@H](Cc3ccc(C(F)(F)F)cc3)C(=O)N(C)CC(=O)N[C@@H](CCc3cc(F)c(C(F)(F)F)c(F)c3)C(=O)N2C1 [PP2127]
NRAS/KRAS (ratio of KD value with respect to NRAS to KD value with respect to KRAS) [1]: AA (a compound having 20 or more is denoted as AA)
HRAS/KRAS (ratio of KD value with respect to HRAS to KD value with respect to KRAS) [2]: A (a compound having 10 or more and less than 20 is denoted as A)

CCO[C@@H]1C[C@H]2C(=O)NC3(CC(C)(C)C3)C(=O)N(C)[C@@H](C(CC)CC)C(=O)N(C)[C@H](C(=O)N3CCCC3)CC(=O)N(C)[C@@H](COC)C(=O)N[C@@H]([C@@H](C)CC)C(=O)N(C)CC(=O)N(C)[C@H]3C/C=C\CCN(C3=O)[C@@H](Cc3ccc(C(F)(F)F)cc3)C(=O)N(C)CC(=O)N[C@@H](CCc3ccc(C(F)(F)F)c(Cl)c3)C(=O)N2C1 [PP2128]
NRAS/KRAS (ratio of KD value with respect to NRAS to KD value with respect to KRAS) [1]: AA (a compound having 20 or more is denoted as AA)
HRAS/KRAS (ratio of KD value with respect to HRAS to KD value with respect to KRAS) [2]: A (a compound having 10 or more and less than 20 is denoted as A)

CCO[C@@H]1C[C@H]2C(=O)NC3(CC(C)(C)C3)C(=O)N(C)[C@@H](C(CC)CC)C(=O)N(C)[C@H](C(=O)N(C)C)CC(=O)N(C)[C@@H](CC(C)C)C(=O)N[C@@H]([C@@H](C)CC)C(=O)N(C)CC(=O)N(C)[C@H]3C/C=C\CCN(C3=O)[C@@H](Cc3ccc(C(F)(F)F)cc3)C(=O)N(C)CC(=O)N[C@@H](CCc3ccc(C(F)(F)F)c(Cl)c3)C(=O)N2C1 [PP2132]
NRAS/KRAS (ratio of KD value with respect to NRAS to KD value with respect to KRAS) [1]: AA (a compound having 20 or more is denoted as AA)
HRAS/KRAS (ratio of KD value with respect to HRAS to KD value with respect to KRAS) [2]: A (a compound having 10 or more and less than 20 is denoted as A)

CCO[C@@H]1C[C@H]2C(=O)NC3(CC(C)(C)C3)C(=O)N(C)[C@@H](C(CC)CC)C(=O)N(C)[C@H](C(=O)N(C)C)CC(=O)N(C)[C@@H](CC3CCC3)C(=O)N[C@@H]([C@@H](C)CC)C(=O)N(C)CC(=O)N(C)[C@H]3C/C=C\CCN(C3=O)[C@@H](Cc3ccc(C(F)(F)F)cc3)C(=O)N(C)CC(=O)N[C@@H](CCc3cc(F)c(C(F)(F)F)c(F)c3)C(=O)N2C1 [PP2133]
NRAS/KRAS (ratio of KD value with respect to NRAS to KD value with respect to KRAS) [1]: AA (a compound having 20 or more is denoted as AA)
HRAS/KRAS (ratio of KD value with respect to HRAS to KD value with respect to KRAS) [2]: A (a compound having 10 or more and less than 20 is denoted as A)

CCO[C@@H]1C[C@H]2C(=O)NC3(CC(C)(C)C3)C(=O)N(C)[C@@H](C(CC)CC)C(=O)N(C)[C@H](C(=O)N(C)C)CC(=O)N(C)[C@@H](C(C)C)C(=O)N[C@@H]([C@@H](C)CC)C(=O)N(C)CC(=O)N(C)[C@H]3C/C=C\CCN(C3=O)[C@@H](Cc3ccc(C(F)(F)F)cc3)C(=O)N(C)CC(=O)N[C@@H](CCc3cc(F)c(C(F)(F)F)c(F)c3)C(=O)N2C1 [PP2135]
NRAS/KRAS (ratio of KD value with respect to NRAS to KD value with respect to KRAS) [1]: AA (a compound having 20 or more is denoted as AA)
HRAS/KRAS (ratio of KD value with respect to HRAS to KD value with respect to KRAS) [2]: A (a compound having 10 or more and less than 20 is denoted as A)

CCO[C@@H]1C[C@H]2C(=O)NC3(CC(C)(C)C3)C(=O)N(C)[C@@H](C(CC)CC)C(=O)N(C)[C@H](C(=O)N(C)C)CC(=O)N(C)[C@@H](CC3CC3)C(=O)N[C@@H]([C@@H](C)CC)C(=O)N(C)CC(=O)N(C)[C@H]3C/C=C\CCN(C3=O)[C@@H](Cc3ccc(C)cc3)C(=O)N(C)CC(=O)N[C@@H](CCc3cc(F)c(C(F)(F)F)c(F)c3)C(=O)N2C1 [PP2137]
NRAS/KRAS (ratio of KD value with respect to NRAS to KD value with respect to KRAS) [1]: A (a compound having 10 or more and less than 20 is denoted as A)
HRAS/KRAS (ratio of KD value with respect to HRAS to KD value with respect to KRAS) [2]: A (a compound having 10 or more and less than 20 is denoted as A)

CCO[C@@H]1C[C@H]2C(=O)NC3(CC(C)(C)C3)C(=O)N(C)[C@@H](C(CC)CC)C(=O)N(C)[C@H](C(=O)N(C)C)CC(=O)N(C)[C@@H](CC3CCC3)C(=O)N[C@@H]([C@@H](C)CC)C(=O)N(C)CC(=O)N(C)[C@H]3C/C=C\CCN(C3=O)[C@@H](Cc3ccc(C(F)(F)F)cc3)C(=O)N(C)CC(=O)N[C@@H](CCc3ccc(C(F)(F)F)c(Cl)c3)C(=O)N2C1 [PP2138]
NRAS/KRAS (ratio of KD value with respect to NRAS to KD value with respect to KRAS) [1]: A (a compound having 10 or more and less than 20 is denoted as A)
HRAS/KRAS (ratio of KD value with respect to HRAS to KD value with respect to KRAS) [2]: A (a compound having 10 or more and less than 20 is denoted as A)
